Reference: ChEMBL document CHEMBL4184333, “Expanding Benzoxazole-Based Inosine 5'-Monophosphate Dehydrogenase (IMPDH) Inhibitor Structure-Activity As Potential Antituberculosis Agents” (J Med Chem, 2018)
≈ marks a conversion by molar mass, not a printed value. Calls of active or inactive are those of the source. The calls are words filed in the database; no cut-off is given here.

The compounds below were run against Inosine-5'-monophosphate dehydrogenase 2 (Homo sapiens, UniProt P12268) (assay: Inhibition of human IMPDH2 using IMP as substrate by spectrophotometric method). Settings: read-out: Ki(app).

SMILES | Ki [µM]
C[C@H](Oc1cccc2c1B(O)OC2)C(=O)Nc1ccc2oc(-c3ccc(C#N)cc3)nc2c1 | > 5
C[C@H](Oc1cccc(Cl)c1Cl)C(=O)Nc1ccc2oc(-c3ccc(C(=O)O)cc3)nc2c1 | > 5
C[C@H](Oc1cccc(Cl)c1Cl)C(=O)Nc1ccc2oc(-c3ccc(C(=O)NN)cc3)nc2c1 | > 5
C[C@H](Oc1cccc(Cl)c1Cl)C(=O)Nc1ccc2oc(-c3ccccc3O)nc2c1 | > 5
C[C@H](Oc1cccc(Cl)c1Cl)C(=O)Nc1ccc2oc(-c3ccc(OC(F)(F)F)cc3)nc2c1 | > 5
C[C@H](Oc1cccc(F)c1F)C(=O)Nc1ccc2oc(-c3ccc(O)cc3)nc2c1 | > 5
C[C@H](Oc1cccc(Cl)c1Cl)C(=O)Nc1ccc2oc(-c3ccc(F)cc3)nc2c1 | > 5
COc1ccc(-c2cn3cc(NC(=O)[C@H](C)Oc4cccc(Cl)c4Cl)ccc3n2)cc1 | > 5
C[C@H](Oc1cccc(Cl)c1Cl)C(=O)Nc1ccc2oc(-c3cccc(OCC(=O)O)c3)nc2c1 | > 5
C[C@H](Oc1cccc(Cl)c1Cl)C(=O)Nc1ccc2oc(-c3ccncc3)nc2c1 | > 5
C[C@H](Oc1cccc(Cl)c1Cl)C(=O)Nc1ccc2oc(-c3ccc(/C(N)=N\O)cc3)nc2c1 | > 5
C[C@H](Oc1cccc(Cl)c1Cl)C(=O)Nc1ccc2oc(-c3ccc(-c4noc(=O)[nH]4)cc3)nc2c1 | > 5
CCOC(=O)COc1cccc(-c2nc3cc(NC(=O)[C@H](C)Oc4cccc(Cl)c4Cl)ccc3o2)c1 | > 5
C[C@H](Oc1cccc(F)c1F)C(=O)Nc1ccc2oc(-c3ccc(F)cc3)nc2c1 | > 5
C[C@H](Oc1ccccc1OCc1ccccc1)C(=O)Nc1ccc2oc(-c3ccc(C#N)cc3)nc2c1 | > 5
COc1ccc(-c2nc3cc(NC(=O)[C@H](C)Oc4ccccc4CN)ccc3o2)cc1 | > 5
C[C@H](Oc1ccc(F)c(F)c1F)C(=O)Nc1ccc2oc(-c3ccc(C#N)cc3)nc2c1 | > 5
COc1ccc(-c2nc3cc(NC(=S)[C@H](C)Oc4cccc(Cl)c4Cl)ccc3o2)cc1 | > 5

What follows are compounds tested against T1, GMP reductase 2 (Homo sapiens, UniProt Q9P2T1) (assay: Inhibition of human GMPR2 using GMP as substrate by spectrophotometric method). Settings: read-out: Ki(app).
T1 sequence (Q9P2T1 whole entry): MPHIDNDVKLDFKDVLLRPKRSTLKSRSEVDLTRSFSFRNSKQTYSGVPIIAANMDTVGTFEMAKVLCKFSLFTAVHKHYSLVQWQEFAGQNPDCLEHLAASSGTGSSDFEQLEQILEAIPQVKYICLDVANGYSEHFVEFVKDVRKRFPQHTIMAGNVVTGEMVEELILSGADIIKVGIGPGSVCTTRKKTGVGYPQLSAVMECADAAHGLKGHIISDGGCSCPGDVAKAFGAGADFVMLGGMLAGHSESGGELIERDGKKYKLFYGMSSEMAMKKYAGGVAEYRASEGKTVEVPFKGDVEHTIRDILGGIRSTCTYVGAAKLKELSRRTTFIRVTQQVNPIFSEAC

SMILES | Ki [µM]
C[C@H](Oc1cccc2c1B(O)OC2)C(=O)Nc1ccc2oc(-c3ccc(C#N)cc3)nc2c1 | > 5
C[C@H](Oc1cccc(Cl)c1Cl)C(=O)Nc1ccc2oc(-c3ccc(C(=O)O)cc3)nc2c1 | > 5
C[C@H](Oc1cccc(Cl)c1Cl)C(=O)Nc1ccc2oc(-c3ccc(C(=O)NN)cc3)nc2c1 | > 5
C[C@H](Oc1cccc(Cl)c1Cl)C(=O)Nc1ccc2oc(-c3ccccc3O)nc2c1 | > 5
C[C@H](Oc1cccc(Cl)c1Cl)C(=O)Nc1ccc2oc(-c3ccc(OC(F)(F)F)cc3)nc2c1 | > 5
C[C@H](Oc1cccc(F)c1F)C(=O)Nc1ccc2oc(-c3ccc(O)cc3)nc2c1 | > 5
C[C@H](Oc1cccc(Cl)c1Cl)C(=O)Nc1ccc2oc(-c3ccc(F)cc3)nc2c1 | > 5
COc1ccc(-c2cn3cc(NC(=O)[C@H](C)Oc4cccc(Cl)c4Cl)ccc3n2)cc1 | > 5
C[C@H](Oc1cccc(Cl)c1Cl)C(=O)Nc1ccc2oc(-c3cccc(OCC(=O)O)c3)nc2c1 | > 5
C[C@H](Oc1cccc(Cl)c1Cl)C(=O)Nc1ccc2oc(-c3ccncc3)nc2c1 | > 5
C[C@H](Oc1cccc(Cl)c1Cl)C(=O)Nc1ccc2oc(-c3ccc(/C(N)=N\O)cc3)nc2c1 | > 5
C[C@H](Oc1cccc(Cl)c1Cl)C(=O)Nc1ccc2oc(-c3ccc(-c4noc(=O)[nH]4)cc3)nc2c1 | > 5
CCOC(=O)COc1cccc(-c2nc3cc(NC(=O)[C@H](C)Oc4cccc(Cl)c4Cl)ccc3o2)c1 | > 5
C[C@H](Oc1cccc(F)c1F)C(=O)Nc1ccc2oc(-c3ccc(F)cc3)nc2c1 | > 5
C[C@H](Oc1ccccc1OCc1ccccc1)C(=O)Nc1ccc2oc(-c3ccc(C#N)cc3)nc2c1 | > 5
COc1ccc(-c2nc3cc(NC(=O)[C@H](C)Oc4ccccc4CN)ccc3o2)cc1 | > 5
C[C@H](Oc1ccc(F)c(F)c1F)C(=O)Nc1ccc2oc(-c3ccc(C#N)cc3)nc2c1 | > 5
COc1ccc(-c2nc3cc(NC(=S)[C@H](C)Oc4cccc(Cl)c4Cl)ccc3o2)cc1 | > 5

The compounds below were run on Mycobacterium tuberculosis (assay: Antitubercular activity against Mycobacterium tuberculosis H37Rv ATCC 27294 using GAST/Fe medium after 1 week in absence of guanine by broth microdilution method). Settings: H37Rv ATCC 27294, 168 h.
Format: functional

SMILES | MIC [µM]
C[C@H](Oc1cccc(Cl)c1Cl)C(=O)Nc1ccc2oc(-c3ccc(C(=O)O)cc3)nc2c1 | 4 (≈ 1.89 µg/mL)
C[C@H](Oc1cccc(Cl)c1Cl)C(=O)Nc1ccc2oc(-c3ccc(OC(F)(F)F)cc3)nc2c1 | > 50
C[C@H](Oc1cccc(F)c1F)C(=O)Nc1ccc2oc(-c3ccc(O)cc3)nc2c1 | 6 (≈ 2.46 µg/mL)
C[C@H](Oc1cccc(Cl)c1Cl)C(=O)Nc1ccc2oc(-c3ccc(F)cc3)nc2c1 | > 50
C[C@H](Oc1cccc(Cl)c1Cl)C(=O)Nc1ccc2oc(-c3ccncc3)nc2c1 | 9.4 (≈ 4.03 µg/mL)
C[C@H](Oc1cccc(Cl)c1Cl)C(=O)Nc1ccc2oc(-c3ccc(/C(N)=N\O)cc3)nc2c1 | 25 (≈ 12.1 µg/mL)
CCOC(=O)COc1cccc(-c2nc3cc(NC(=O)[C@H](C)Oc4cccc(Cl)c4Cl)ccc3o2)c1 | 0.9 (≈ 0.476 µg/mL)
C[C@H](Oc1cccc(F)c1F)C(=O)Nc1ccc2oc(-c3ccc(F)cc3)nc2c1 | > 50
COc1ccc(-c2nc3cc(NC(=O)[C@H](C)Oc4ccccc4CN)ccc3o2)cc1 | 9.4 (≈ 3.92 µg/mL)
C[C@H](Oc1ccc(F)c(F)c1F)C(=O)Nc1ccc2oc(-c3ccc(C#N)cc3)nc2c1 | > 50
COc1ccc(-c2nc3cc(NC(=S)[C@H](C)Oc4cccc(Cl)c4Cl)ccc3o2)cc1 | 37 (≈ 17.5 µg/mL)

Each compound was assayed on Mycobacterium tuberculosis (assay: Antitubercular activity against Mycobacterium tuberculosis H37Rv ATCC 27294 using GAST/Fe medium after 1 week in presence of guanine by broth microdilution method). Settings: H37Rv ATCC 27294, 168 h.
Format: functional

SMILES | MIC [µM]
C[C@H](Oc1cccc(Cl)c1Cl)C(=O)Nc1ccc2oc(-c3ccc(C(=O)O)cc3)nc2c1 | 5
C[C@H](Oc1cccc(Cl)c1Cl)C(=O)Nc1ccc2oc(-c3ccc(OC(F)(F)F)cc3)nc2c1 | > 50
C[C@H](Oc1cccc(F)c1F)C(=O)Nc1ccc2oc(-c3ccc(O)cc3)nc2c1 | 19
C[C@H](Oc1cccc(Cl)c1Cl)C(=O)Nc1ccc2oc(-c3ccc(F)cc3)nc2c1 | > 50
C[C@H](Oc1cccc(Cl)c1Cl)C(=O)Nc1ccc2oc(-c3ccncc3)nc2c1 | 37
C[C@H](Oc1cccc(Cl)c1Cl)C(=O)Nc1ccc2oc(-c3ccc(/C(N)=N\O)cc3)nc2c1 | 25
CCOC(=O)COc1cccc(-c2nc3cc(NC(=O)[C@H](C)Oc4cccc(Cl)c4Cl)ccc3o2)c1 | 1.4
C[C@H](Oc1cccc(F)c1F)C(=O)Nc1ccc2oc(-c3ccc(F)cc3)nc2c1 | > 50
COc1ccc(-c2nc3cc(NC(=O)[C@H](C)Oc4ccccc4CN)ccc3o2)cc1 | 16
C[C@H](Oc1ccc(F)c(F)c1F)C(=O)Nc1ccc2oc(-c3ccc(C#N)cc3)nc2c1 | > 50
COc1ccc(-c2nc3cc(NC(=S)[C@H](C)Oc4cccc(Cl)c4Cl)ccc3o2)cc1 | > 50

Each compound was assayed on Mycobacterium tuberculosis (assay: Antitubercular activity against Mycobacterium tuberculosis H37Rv ATCC 27294 using 7H9/ADC/Tween medium after 1 week in absence of guanine by broth microdilution method). Settings: H37Rv ATCC 27294, 168 h.
Format: functional

SMILES | MIC [µM]
C[C@H](Oc1cccc(Cl)c1Cl)C(=O)Nc1ccc2oc(-c3ccc(C(=O)O)cc3)nc2c1 | ≥ 25
C[C@H](Oc1cccc(Cl)c1Cl)C(=O)Nc1ccc2oc(-c3ccc(OC(F)(F)F)cc3)nc2c1 | > 50
C[C@H](Oc1cccc(F)c1F)C(=O)Nc1ccc2oc(-c3ccc(O)cc3)nc2c1 | 7 (≈ 2.87 µg/mL)
C[C@H](Oc1cccc(Cl)c1Cl)C(=O)Nc1ccc2oc(-c3ccc(F)cc3)nc2c1 | > 50
C[C@H](Oc1cccc(Cl)c1Cl)C(=O)Nc1ccc2oc(-c3ccncc3)nc2c1 | 16 (≈ 6.85 µg/mL)
C[C@H](Oc1cccc(Cl)c1Cl)C(=O)Nc1ccc2oc(-c3ccc(/C(N)=N\O)cc3)nc2c1 | > 50
CCOC(=O)COc1cccc(-c2nc3cc(NC(=O)[C@H](C)Oc4cccc(Cl)c4Cl)ccc3o2)c1 | 1.6 (≈ 0.847 µg/mL)
C[C@H](Oc1cccc(F)c1F)C(=O)Nc1ccc2oc(-c3ccc(F)cc3)nc2c1 | > 50
COc1ccc(-c2nc3cc(NC(=O)[C@H](C)Oc4ccccc4CN)ccc3o2)cc1 | 5.5 (≈ 2.3 µg/mL)
C[C@H](Oc1ccc(F)c(F)c1F)C(=O)Nc1ccc2oc(-c3ccc(C#N)cc3)nc2c1 | > 50
COc1ccc(-c2nc3cc(NC(=S)[C@H](C)Oc4cccc(Cl)c4Cl)ccc3o2)cc1 | > 50

Each compound was assayed on Mycobacterium tuberculosis (assay: Antitubercular activity against Mycobacterium tuberculosis H37Rv ATCC 27294 using 7H9/ADC/Tween medium after 1 week in presence of guanine by broth microdilution method). Settings: H37Rv ATCC 27294, 168 h.
Format: functional

SMILES | MIC [µM]
C[C@H](Oc1cccc(Cl)c1Cl)C(=O)Nc1ccc2oc(-c3ccc(C(=O)O)cc3)nc2c1 | > 50
C[C@H](Oc1cccc(Cl)c1Cl)C(=O)Nc1ccc2oc(-c3ccc(OC(F)(F)F)cc3)nc2c1 | > 50
C[C@H](Oc1cccc(F)c1F)C(=O)Nc1ccc2oc(-c3ccc(O)cc3)nc2c1 | > 30
C[C@H](Oc1cccc(Cl)c1Cl)C(=O)Nc1ccc2oc(-c3ccc(F)cc3)nc2c1 | > 50
C[C@H](Oc1cccc(Cl)c1Cl)C(=O)Nc1ccc2oc(-c3ccncc3)nc2c1 | 28
C[C@H](Oc1cccc(Cl)c1Cl)C(=O)Nc1ccc2oc(-c3ccc(/C(N)=N\O)cc3)nc2c1 | > 50
CCOC(=O)COc1cccc(-c2nc3cc(NC(=O)[C@H](C)Oc4cccc(Cl)c4Cl)ccc3o2)c1 | 1.6
C[C@H](Oc1cccc(F)c1F)C(=O)Nc1ccc2oc(-c3ccc(F)cc3)nc2c1 | > 50
COc1ccc(-c2nc3cc(NC(=O)[C@H](C)Oc4ccccc4CN)ccc3o2)cc1 | 9.4
C[C@H](Oc1ccc(F)c(F)c1F)C(=O)Nc1ccc2oc(-c3ccc(C#N)cc3)nc2c1 | > 50
COc1ccc(-c2nc3cc(NC(=S)[C@H](C)Oc4cccc(Cl)c4Cl)ccc3o2)cc1 | > 50

The compounds below were run on Mycobacterium tuberculosis (assay: Antitubercular activity against Mycobacterium tuberculosis H37Rv ATCC 27294 using GAST/Fe medium after 2 weeks in absence of guanine by broth microdilution method). Settings: not given.
Format: functional, organism-based

SMILES | Activity
C[C@H](Oc1cccc(Cl)c1Cl)C(=O)Nc1ccc2oc(-c3ccc(C(=O)O)cc3)nc2c1 | Active
